These results are taken from patent US20030216324A1, “Airway mucus secretion inhibitors” (priority 2000, published 2003).

Structures are written as SMILES.

The test system of test [1] is augmentative airway mucus secretion. Particulars: airway inflammation model by ozone exposure (lesion similar to chronic bronchitis); cited from earlier work.
In test [2] the test system is augmentative mucus secretion in guinea pig trachea. Put plainly: Suppressive effect on augmentative secretion by antigen challenge (ovalbumin-sensitized guinea pig, mucus score by PAS-Alcian Blue). It is filed as in vivo. Particulars: OA-sensitized guinea pig; test drug 100 mg/kg oral; 5% OA inhaled 30 minutes after drug; trachea removed 10 minutes later. The procedure:
Suppressive Effect on Augmentative Secretion by Antigen Challenge
Egg albumin (Ovalbumin:OA) (70 mg/kg) is administered and sensitized to guinea pig into the peritoneal cavity on the first experiment day and 8th day. The test drug (100 mg/kg) was oral administered to the sensitized guinea pig on 22nd experiment day. 5%OA was inhaled for 2 minutes 30 minutes after the test drug was administered, and the trachea was removed 10 minutes later. It was dyed with PAS-Alcian Blue, and the augmentative mucus secretion was evaluated according to the level of the decrease in mucus score.
As a test drug, 2-[5-amino-6-oxo-2-phenyl-1,6-dihydro-1-pyrimidinyl]-N-[1-[[5-(t-butyl)-1,3,4-oxadiazole-2-yl]carbonyl]-2-methylpropyl]acetamide (Compound 34) was used.

In the case of `CC(C)(C)C(=O)Oc1ccc(S(=O)(=O)Nc2ccccc2C(=O)NCC(=O)O)cc1` [ONO-5046], the “augmentative airway mucus secretion” value in test [1] is recorded as “suppress”.

As for `CC(C)C(NC(=O)Cn1c(-c2ccccc2)ncc(N)c1=O)C(=O)c1nnc(C(C)(C)C)o1` (centres unmarked) [Compound 34, 2-[5-amino-6-oxo-2-phenyl-1,6-dihydro-1-pyrimidinyl]-N-[1-[[5-(t-butyl)-1,3,4-oxadiazole-2-yl]carbonyl]-2-methylpropyl]acetamide], the “mucus score (augmentative mucus secretion, PAS-Alcian Blue dye)” value in test [2] is listed as “intentionally suppressed”.
